From ChEMBL document CHEMBL1153683, “Triply-convergent synthesis of two sets of homochiral cyclopent[a]indene carbacyclin analogs” (Bioorg Med Chem Lett, 1991)
pIC50: −log10 of the molar value.

organism: Homo sapiens; assay: Compound was evaluated for the inhibition of collagen-induced platelet aggregation; assay type: functional

Structure (SMILES)	pIC50
O=C(O)CCc1ccc2c(c1)[C@H]1C[C@@H](O)[C@H](/C=C\[C@@H](O)C3CCCCC3)[C@H]1C2	< 4.00
O=C(O)CCc1ccc2c(c1)[C@H]1C[C@@H](O)[C@H](CC[C@@H](O)C3CCCCC3)[C@H]1C2	5.66
O=C(O)Cc1ccc2c(c1)[C@H]1C[C@@H](O)[C@H](/C=C\[C@@H](O)C3CCCCC3)[C@H]1C2	< 4.00

Now those with a higher pIC50, led by results:

pIC50	Structure (SMILES)
6.48	O=C(O)Cc1ccc2c(c1)[C@H]1C[C@@H](O)[C@H](CC[C@@H](O)C3CCCCC3)[C@H]1C2
6.48	O=C(O)CCc1ccc2c(c1)[C@H]1C[C@@H](O)[C@H](C#C[C@@H](O)C3CCCCC3)[C@H]1C2
6.74	O=C(O)Cc1ccc2c(c1)[C@H]1C[C@@H](O)[C@H](C#C[C@@H](O)C3CCCCC3)[C@H]1C2
